{"source": "patent US8883745B2", "about": "“C—glycolipids with enhanced Th-1 profile” (New York University, priority 2006, dated 2014)", "format_in_all_cases": "in vivo", "key": {"IL-4 [1]": {"test_system": "IL-4", "experiment": "IL-4 levels in sera upon i.v. glycolipid administration to C57BL/6 mice (ELISA)", "parameters": "unit not given here", "description": "(§1) Five- to six-week-old female C57BL/6 mice and BALB/c mice were purchased from Taconic. Each glycolipid was stored at 1 mg/ml in 100% DMSO. Mice were injected intravenously with 1 μg of each glyocolipid diluted in 200 μL sterile phosphate buffered saline (PBS). At indicated time points, sera were collected from each animal, and concentrations of IFN-γ, IL-4, and IL-12 in the sera were evaluated by enzyme-linked immunosorbent assay (ELISA). Serum concentrations of IFN-γ, IL-4, and IL-12 were evaluated using an ELISA kit (eBioscience, San Diego, Calif.). Briefly, 96 well flat-bottom ELISA plates (NUNC) were coated with capture antibody according to the manufacture's recommendation and incubated overnight at 4° C. The plates were washed with PBS+0.05% Tween 20 (PBS-T), then incubated with manufacturer provided blocking solution for 1 hr at room temperature to block non-specific binding sites. After washing with PBS-T, sera diluted 1:10 was added to the wells and incubated for 2 hrs at room temperature. Plates were then incubated at room temperature for 1 hr with biotintylated detection antibody, washed, incubated with avidin conjugated to horse radish peroxidase (HRP) for 30 min at room temperature, washed, and finally incubated with tetramethylbenzidine substrate solution in the dark for 10 minutes at room temperature. The antibodies, avidin-HRP, and substrate solution were all diluted according to the manufacture's recommendation. Reactions were stopped with 2.0N sulfuric acid and the cytokine concentration in each well was determined by comparing the absorbance at 450 nm in each well to known standards. The levels of Th1- and Th2-type cytokines were determined in two different genetic backgrounds, i.e., in C57BL/6 mice and BALB/c mice. The following compounds were administered: A=compound (A-1 trans-conformer), B=compound (A-2), C=compound (A-3), D=compound (A-4), E=compound (A-5), Z=control (PBS alone), CRONY=α-C-GalCer, KRN=α-GalCer, GCK109 (A-1 trans-conformer), GCK151 (A-1 cis-conformer), GCK152 (A-7). The levels of cytokines were measured at 0, 2, 6, 12, 24, 48, and 72 hours after the compound administration. The levels of Th1-type cytokines IFN-γ and IL-12 are summarized in FIGS. 2A-C and 3A-C, respectively. Table 7 provides IFN-γ/IL-4 and IL-12/IL-4 ratios for various compounds, which can be used as indicators of their ability to selectively stimulate Th1-type immune responses."}, "IFN-γ": {"test_system": "IFN-γ", "experiment": "IFN-γ levels in sera upon i.v. glycolipid administration to C57BL/6 mice (ELISA)", "parameters": "IFN-γ levels, test 1 / IFN-γ levels, test 2 / IFN-γ levels, average / IFN-γ levels, Total / IFN-γ (B6): unit not given here", "description": "as §1"}, "IL-4 [2]": {"test_system": "IL-4", "experiment": "IL-4 levels in sera upon i.v. glycolipid administration to BALB/c mice (ELISA)", "parameters": "unit not given here", "description": "as §1"}, "IL-12": {"test_system": "IL-12", "experiment": "IL-12 levels in sera upon i.v. glycolipid administration to C57BL/6 mice (ELISA)", "parameters": "IL-12 levels, test 1 / IL-12 levels, test 2 / IL-12 levels, average / IL-12 levels, Total: unit not given here", "description": "as §1"}, "[3]": {"conditions": "C57BL/6, ratio calculated from Tables 1-6"}, "[4]": {"conditions": "C57BL/6, serum, total over hours 0-72"}}}
{"smiles": "CCCCCCCCCCCCCCCCC/C=C/CCCCCCCCC(=O)N[C@@H](CC[C@H]1O[C@H](CO)[C@H](O)[C@H](O)[C@H]1O)[C@H](O)[C@H](O)CCCCCCCCCCCCCC", "note": "[A-3]", "values": [{"measurement": "IL-4 level, average", "setting": "IL-4 [1]; hour 0", "value": 46}, {"measurement": "IL-4 level, test 1", "setting": "IL-4 [1]; hour 0", "value": 46}, {"measurement": "IL-4 level, test 2", "setting": "IL-4 [1]; hour 0", "value": 46}, {"measurement": "IL-4 level, average", "setting": "IL-4 [1]; hour 2", "value": 576}, {"measurement": "IL-4 level, test 1", "setting": "IL-4 [1]; hour 2", "value": 398}, {"measurement": "IL-4 level, test 2", "setting": "IL-4 [1]; hour 2", "value": 754}, {"measurement": "IL-4 level, average", "setting": "IL-4 [1]; hour 6", "value": 72.5}, {"measurement": "IL-4 level, test 1", "setting": "IL-4 [1]; hour 6", "value": 59}, {"measurement": "IL-4 level, test 2", "setting": "IL-4 [1]; hour 6", "value": 86}, {"measurement": "IL-4 level, average", "setting": "IL-4 [1]; hour 12", "value": 49}, {"measurement": "IL-4 level, test 1", "setting": "IL-4 [1]; hour 12", "value": 43}, {"measurement": "IL-4 level, test 2", "setting": "IL-4 [1]; hour 12", "value": 55}, {"measurement": "IL-4 level, average", "setting": "IL-4 [1]; hour 24", "value": 57.5}, {"measurement": "IL-4 level, test 1", "setting": "IL-4 [1]; hour 24", "value": 49}, {"measurement": "IL-4 level, test 2", "setting": "IL-4 [1]; hour 24", "value": 66}, {"measurement": "IL-4 level, average", "setting": "IL-4 [1]; hour 48", "value": 54.5}, {"measurement": "IL-4 level, test 1", "setting": "IL-4 [1]; hour 48", "value": 54}, {"measurement": "IL-4 level, test 2", "setting": "IL-4 [1]; hour 48", "value": 55}, {"measurement": "IL-4 level, average", "setting": "IL-4 [1]; hour 72", "value": 58}, {"measurement": "IL-4 level, test 1", "setting": "IL-4 [1]; hour 72", "value": 54}, {"measurement": "IL-4 level, test 2", "setting": "IL-4 [1]; hour 72", "value": 62}, {"measurement": "IL-4 level, Total", "setting": "IL-4 [1]; total over hours 0-72", "value": 915}, {"measurement": "IFN-γ/IL-4 (B6)", "setting": "IFN-γ; [3]", "value": 14}, {"measurement": "IFN-γ levels, average", "setting": "IFN-γ; C57BL/6, serum, hour 0", "value": 31}, {"measurement": "IFN-γ levels, test 1", "setting": "IFN-γ; C57BL/6, serum, hour 0", "value": 31}, {"measurement": "IFN-γ levels, test 2", "setting": "IFN-γ; C57BL/6, serum, hour 0", "value": 31}, {"measurement": "IFN-γ levels, average", "setting": "IFN-γ; C57BL/6, serum, hour 2", "value": 213}, {"measurement": "IFN-γ levels, test 1", "setting": "IFN-γ; C57BL/6, serum, hour 2", "value": 185}, {"measurement": "IFN-γ levels, test 2", "setting": "IFN-γ; C57BL/6, serum, hour 2", "value": 241}, {"measurement": "IFN-γ levels, average", "setting": "IFN-γ; C57BL/6, serum, hour 6", "value": 606}, {"measurement": "IFN-γ levels, test 1", "setting": "IFN-γ; C57BL/6, serum, hour 6", "value": 542}, {"measurement": "IFN-γ levels, test 2", "setting": "IFN-γ; C57BL/6, serum, hour 6", "value": 670}, {"measurement": "IFN-γ levels, average", "setting": "IFN-γ; C57BL/6, serum, hour 12", "value": 2440.5}, {"measurement": "IFN-γ levels, test 1", "setting": "IFN-γ; C57BL/6, serum, hour 12", "value": 2665}, {"measurement": "IFN-γ levels, test 2", "setting": "IFN-γ; C57BL/6, serum, hour 12", "value": 2216}, {"measurement": "IFN-γ levels, average", "setting": "IFN-γ; C57BL/6, serum, hour 24", "value": 9036}, {"measurement": "IFN-γ levels, test 1", "setting": "IFN-γ; C57BL/6, serum, hour 24", "value": 9837}, {"measurement": "IFN-γ levels, test 2", "setting": "IFN-γ; C57BL/6, serum, hour 24", "value": 8235}, {"measurement": "IFN-γ levels, average", "setting": "IFN-γ; C57BL/6, serum, hour 48", "value": 344}, {"measurement": "IFN-γ levels, test 1", "setting": "IFN-γ; C57BL/6, serum, hour 48", "value": 382}, {"measurement": "IFN-γ levels, test 2", "setting": "IFN-γ; C57BL/6, serum, hour 48", "value": 306}, {"measurement": "IFN-γ levels, average", "setting": "IFN-γ; C57BL/6, serum, hour 72", "value": 79.5}, {"measurement": "IFN-γ levels, test 1", "setting": "IFN-γ; C57BL/6, serum, hour 72", "value": 75}, {"measurement": "IFN-γ levels, test 2", "setting": "IFN-γ; C57BL/6, serum, hour 72", "value": 84}, {"measurement": "IFN-γ levels, Total", "setting": "IFN-γ; [4]", "value": 12751}, {"measurement": "IL-4 level, average", "setting": "IL-4 [2]; hour 0", "value": 27}, {"measurement": "IL-4 level, test 1", "setting": "IL-4 [2]; hour 0", "value": 27}, {"measurement": "IL-4 level, test 2", "setting": "IL-4 [2]; hour 0", "value": 27}, {"measurement": "IL-4 level, average", "setting": "IL-4 [2]; hour 2", "value": 307.5}, {"measurement": "IL-4 level, test 1", "setting": "IL-4 [2]; hour 2", "value": 273}, {"measurement": "IL-4 level, test 2", "setting": "IL-4 [2]; hour 2", "value": 342}, {"measurement": "IL-4 level, average", "setting": "IL-4 [2]; hour 6", "value": 54.5}, {"measurement": "IL-4 level, test 1", "setting": "IL-4 [2]; hour 6", "value": 56}, {"measurement": "IL-4 level, test 2", "setting": "IL-4 [2]; hour 6", "value": 53}, {"measurement": "IL-4 level, average", "setting": "IL-4 [2]; hour 12", "value": 48}, {"measurement": "IL-4 level, test 1", "setting": "IL-4 [2]; hour 12", "value": 44}, {"measurement": "IL-4 level, test 2", "setting": "IL-4 [2]; hour 12", "value": 52}, {"measurement": "IL-4 level, average", "setting": "IL-4 [2]; hour 24", "value": 44}, {"measurement": "IL-4 level, test 1", "setting": "IL-4 [2]; hour 24", "value": 44}, {"measurement": "IL-4 level, test 2", "setting": "IL-4 [2]; hour 24", "value": 44}, {"measurement": "IL-4 level, average", "setting": "IL-4 [2]; hour 48", "value": 43}, {"measurement": "IL-4 level, test 1", "setting": "IL-4 [2]; hour 48", "value": 48}, {"measurement": "IL-4 level, test 2", "setting": "IL-4 [2]; hour 48", "value": 38}, {"measurement": "IL-4 level, average", "setting": "IL-4 [2]; hour 72", "value": 12.23}, {"measurement": "IL-4 level, test 1", "setting": "IL-4 [2]; hour 72", "value": 12.23}, {"measurement": "IL-4 level, test 2", "setting": "IL-4 [2]; hour 72", "value": 12.23}, {"measurement": "IL-4 level, Total", "setting": "IL-4 [2]; total over hours 0-72", "value": 538}, {"measurement": "IL-12/IL-4 (B6)", "setting": "IL-12; [3]", "value": 1.5}, {"measurement": "IL-12 levels, average", "setting": "IL-12; C57BL/6, serum, hour 0", "value": 5}, {"measurement": "IL-12 levels, test 1", "setting": "IL-12; C57BL/6, serum, hour 0", "value": 5}, {"measurement": "IL-12 levels, test 2", "setting": "IL-12; C57BL/6, serum, hour 0", "value": 5}, {"measurement": "IL-12 levels, average", "setting": "IL-12; C57BL/6, serum, hour 2", "value": 75}, {"measurement": "IL-12 levels, test 1", "setting": "IL-12; C57BL/6, serum, hour 2", "value": 79}, {"measurement": "IL-12 levels, test 2", "setting": "IL-12; C57BL/6, serum, hour 2", "value": 71}, {"measurement": "IL-12 levels, average", "setting": "IL-12; C57BL/6, serum, hour 6", "value": 442}, {"measurement": "IL-12 levels, test 1", "setting": "IL-12; C57BL/6, serum, hour 6", "value": 451}, {"measurement": "IL-12 levels, test 2", "setting": "IL-12; C57BL/6, serum, hour 6", "value": 433}, {"measurement": "IL-12 levels, average", "setting": "IL-12; C57BL/6, serum, hour 12", "value": 608}, {"measurement": "IL-12 levels, test 1", "setting": "IL-12; C57BL/6, serum, hour 12", "value": 449}, {"measurement": "IL-12 levels, test 2", "setting": "IL-12; C57BL/6, serum, hour 12", "value": 767}, {"measurement": "IL-12 levels, average", "setting": "IL-12; C57BL/6, serum, hour 24", "value": 89.5}, {"measurement": "IL-12 levels, test 1", "setting": "IL-12; C57BL/6, serum, hour 24", "value": 77}, {"measurement": "IL-12 levels, test 2", "setting": "IL-12; C57BL/6, serum, hour 24", "value": 102}, {"measurement": "IL-12 levels, average", "setting": "IL-12; C57BL/6, serum, hour 48", "value": 99}, {"measurement": "IL-12 levels, test 1", "setting": "IL-12; C57BL/6, serum, hour 48", "value": 67}, {"measurement": "IL-12 levels, test 2", "setting": "IL-12; C57BL/6, serum, hour 48", "value": 131}, {"measurement": "IL-12 levels, average", "setting": "IL-12; C57BL/6, serum, hour 72", "value": 80.5}, {"measurement": "IL-12 levels, test 1", "setting": "IL-12; C57BL/6, serum, hour 72", "value": 53}, {"measurement": "IL-12 levels, test 2", "setting": "IL-12; C57BL/6, serum, hour 72", "value": 108}, {"measurement": "IL-12 levels, Total", "setting": "IL-12; [4]", "value": 1400}]}
